Data on one molecule can be found in patent US20260308158A1, “TARGETING RNAS ASSOCIATED WITH TAUOPATHIES WITH SMALL MOLECULES” (University of Florida Research Foundation, Incorporated, priority 2023, published 2026).

Like-named read-outs stand apart in the source and are kept apart here.

A short description of data set [1]: Plasma and brain exposure in mice. In kind it is in vivo, C57BL/6J mouse. Conditions: mouse, po, 100 mg/kg p.o., C57BL/6J mice. The protocol:
Quantitation of 2 in Mouse Plasma and Brain. Male C57BL/6J mice (n=3 per time point; 5-7 weeks) were orally administered with 2 (100 mg/kg) in a formulation of DMSO/Tween-80/H2O (5/5/90). After 2, 12, 24, and 48 h, mice were euthanized, and blood and brain were collected. Brains were immediately frozen. Blood was centrifuged to generate plasma and immediately frozen. On the day of analysis, brains were homogenized, mixed with a 5-times volume of acetonitrile, and filtered. The plasma was also filtered. Drug levels were determined by mass spectrometry using an ABSciex 5500 mass spectrometer with multiple reaction monitoring. Compound 2 was detected using the mass transition 435->236.

Data set [2] in a line: Cell viability (WST-1), untransfected HeLa cells. Format: cell-based. The conditions noted are these: human, hela cells, 12.5 μM, WST-1, read-out: reduction of viability of HeLa cells. The procedure:
Cell Viability. Cells were treated with DMSO (vehicle) or compound 2 for 48 h at 37° C. After the removal of the DMSO or compound-containing growth medium, the cells were washed with 1×DPBS and incubated in growth medium containing 10% (v/v) WST-1 cell proliferation reagent (Roche) or CellTiter Fluor (Promega; per the manufacturer's recommend protocol) for 40 min. The absorbance of the solution was measured at 450 and 650 nm with a SpectraMax M5 plate reader (Molecular Devices) for cells treated with WST-1. The background signal at 650 nm was subtracted from the WST-1 signal at 450 nm for analysis. For cells treated with CellTiter Fluor, the fluorescence was measured with 390 nm excitation and 505 nm emission wavelengths. Cells treated with a compound were compared to vehicle treated cells to determine the effect of the compound on cell viability.
For orientation: Tetrazolium dyes change colour on reduction, which living cells bring about.

Data set [3] relates to WT MAPT mini-gene pre-mRNA. The data set is described as follows: Chem-CLIP / C-Chem-CLIP in HeLa cells transfected with WT mini-gene. In kind it is cell-based. Conditions: HeLa, WT mini-gene. The protocol: Measuring Cellular Occupancy by Chem-CLIP and C-Chem-CLIP. LAN5 cells were grown to ~80% confluency in 100 mm diameter dishes. HeLa cells were transfected as described in the Luciferase Reporter Assay to Study Exon 10 Alternative Splicing except they were re-plated in 100 mm diameter dishes and grown to ~80% confluency (~1 day). The cells were then treated with 1.5 μM of 3 or 4 for 12 h. For C-Chem-CLIP, dilutions of competing compounds 1 or 2 were pre-incubated with cells for 12 h prior to adding 3. After addition of 3, the cells were incubated for an additional 12 h. After the treatment period, whether for Chem-CLIP or C-Chem-CLIP studies, the cells were washed with 10 mL of 1×DPBS. Ice-cold 1×DPBS (10 mL) was then added to the plate followed by irradiation with 365 nm light in a UV Stratalinker 2400 (Stratagene). Cells were scraped with a cell scraper, transferred to a 15 mL conical vial, and collected by centrifugation. Total RNA was extracted using TRIzol LS Reagent (Invitrogen) per the manufacturer's protocol. […]
RT-qPCR was performed on RNA samples before and after pull-down as described in Real-Time Quantitative PCR to enable calculation of fold enrichment in the pulled down samples. Relative fold enrichment of tau pre-mRNA was measured using Equation 3: […]

Take `COc1cc(N)ncc1CCCN(C)CCCn1cnc2c3ccccc3n(C)c2c1=O` [Compound 2, 3-(3-((3-(6-amino-4-methoxypyridin-3-yl)propyl)(methyl)amino)propyl)-5-methyl-3,5-dihydro-4H-pyrimido[5,4-b]indol-4-one]: the concentration at 48 h came out at 2900 ± 1600 nM in data set [1] (brain, read-out: brain concentration) and 500 ± 300 nM in data set [1] (plasma, read-out: plasma concentration). Moreover, the cytotoxicity at 48 h, 12.5 µM in data set [2] came to 17 ± 3%. Moreover, in data set [3], the “competition of the interaction of 3 with reporter” value is recorded as “competed dose dependently”.
